From patent publication US20230041980A1, “METHOD OF PROTECTING A RESPIRATORY TRACT OR A LUNG FROM DAMAGE, METHOD OF PROTECTING A LUNG FROM PRESSURE DAMAGE INDUCED BY A VENTILATOR, METHOD OF SUPPRESSING SPREAD OF INFECTION WITH VIRUSES OR BACTERIA THAT CAUSE PNEUMONIA IN PULMONARY BRONCHIAL EPITHELIAL CELLS OR ALVEOLAR EPITHELIAL CELLS, AND …” (NEXT21 KABUSHIKI KAISHA, priority 2020, published 2023)

Key:
[1] = tested on: Asthma model mice; assay: Airway resistance and compliance of OVA asthma model mice; assay type: in vivo, BALB/c mice; details: versus amount of muscarine receptor stimulant, inhalation, compared with OVA/OVA
Procedure: (§1) Asthma model mice were produced using BALB/c mice (8 to 10 weeks old) and ovalbumin (OVA) serving as an antigen, and examinations were conducted by administering trehalose by inhalation. On the first day and the fourteenth day, a physiological saline solution or OVA was intraperitoneally administered. 20 micrograms of OVA was administered to one mouse using aluminum hydroxide as an adjuvant. From the twenty-seventh day to the thirty-first day, 10% trehalose or distilled water was administered by inhalation for 20 minutes every day. Moreover, from the twenty-eighth day to the thirtieth day, a physiological saline solution or 1% OVA was administered by inhalation for 20 minutes, 1 to 1.5 hours after the above-mentioned inhalation. On the thirty-second day, evaluation was conducted using an assay system for evaluating allergic airway inflammation and hyperresponsive airway.
The airway resistance and the compliance of the model mice of Example 1 were measured. […] On the other hand, FIGS. 2A and 2B also show the results of the experiment in which lactose was used instead of trehalose (OVA/OVA+Lac).

[2] = tested on: alveolar epithelial cells; assay: Pulmonary tissue sections, H.E. and PAS staining, asthma model mice; assay type: in vivo, BALB/c mice; details: primary inhalation of trehalose, FIGS. 3A, 3B
Procedure: as §1, with “airway. Pulmonary tissue pathological sections were produced from the model mice of Example 1, and the diseases state was observed through hematoxylin-eosin (H.E.) staining and periodic acid-Schiff (PAS) staining. FIGS. 3A and 3B show the results of H.E. staining and the results of PAS staining, respectively.” for “airway.”

[3] = tested on: IL-13; assay: IL-13 level in bronchoalveolar lavage fluid (ELISA); assay type: in vivo, BALB/c mice; details: OVA/OVA+Treh vs OVA/OVA, FIG. 5C
Procedure: as §1, with “airway. Bronchoalveolar lavage was performed on the model mice of Example 1, and the numbers of various cells obtained through the bronchoalveolar lavage were compared and examined. […] The cytokine levels in the bronchoalveolar lavage fluids obtained in Example 4 were measured using an ELISA measurement kit. […] It should be noted that interferon (IFN-γ) was not detected from any of the groups. […]” for “airway.”

[4] = tested on: RAW264.7 cells (macrophages); assay: Lipid peroxides (LPO) in cells treated with hemolysate; assay type: cell-based; details: 5% trehalose, 10% hemolysate for 3 hours, FIG. 6A
Procedure: (§2) Suppression of PLA2 activation caused by applying hydrogen peroxide stimulus to RAW264.7 cells (macrophages) was measured using [^3H]-AA release assay. FIGS. 6A and 6B show the measurement results showing the influence of trehalose on hemolysate or oxygen free radicals. FIGS. 6A and 6B show the measurement results in the case where a culture medium or hemolysate contains a physiological saline solution (Sal), 5% trehalose (Ire), or 5% maltose (Mal). […] In this experiment, RAW264.7 cells were treated with 10% hemolysate for 3 hours. The hemolysate was prepared as a supernatant by suspending erythrocytes of a Wistar rat in a saline solution, an aqueous solution of trehalose, or an aqueous solution of maltose, sonicating the resulting suspension, and then centrifuging the suspension. The LPO level was measured through a colorimetric analysis using a divalent iron molecule. […] In this experiment, RAW264.7 cells were labeled with [3H] arachidonic acid overnight and then treated with hydrogen peroxide for 3 hours. The level of released arachidonic acid was quantified by measuring the radioactivity of the collected culture medium.

[5] = tested on: RAW264.7 cells (macrophages); assay: [3H]-arachidonic acid release after hydrogen peroxide stimulus; assay type: cell-based; details: 5% trehalose, hydrogen peroxide for 3 hours, FIG. 6B
Procedure: as §2

[6] = tested on: TNF-α; assay: TNF-α induced by homogenized cell lysate (ELISA); assay type: cell-based; details: RAW264.7 cells
[7] = tested on: TGF-β1; assay: TGF-β1 induced by homogenized cell lysate (ELISA); assay type: cell-based; details: lysate homogenized in 10% aqueous trehalose vs saline; RAW264.7 cells, 8 hours; acid-treated medium; FIG. 7D
Procedure: Moreover, RAW264.7 cells cultured in a 225-cm^2 flask were homogenized in a physiological saline solution (saline) or a 10% aqueous solution of trehalose (trehalose) using a homogenizer, and cell lysate was thus prepared. The above-mentioned cell lysate was added to RAW264.7 cells that were being cultured in 6 wells, and the cells were cultured for another 8 hours. Then, the culture medium was collected. The culture medium was treated with acid, and then TGF-β1 in the culture medium was measured using ELISA (manufactured by R&D Systems).
In the above-mentioned tests, the cell lysate obtained through homogenization using a homogenizer was used as a model of cell disruption caused by damage (including a surgical operation).

[8] = tested on: PLA2; assay: Released [3H]-arachidonic acid after drying stimulus (PLA2 activation); assay type: cell-based; details: 7.5% trehalose pretreatment 15 minutes, dried 7 minutes; Ca9-22; FIG. 8B
Procedure: The oral epithelial cell line (Ca9-22) maintained in DMEM-10% FBS was treated with [^3H]-arachidonic acid overnight. Pretreatment with a physiological saline solution (Sal), 7.5% trehalose (Tre), or 7.5% maltose (Mal) was conducted for 15 minutes, and then the cells were dried for 7 minutes. Subsequently, a culture medium was added, and then the cells were cultured for 1 hour.

SMILES: OC[C@H]1O[C@H](O[C@H]2O[C@H](CO)[C@@H](O)[C@H](O)[C@H]2O)[C@H](O)[C@@H](O)[C@@H]1O [trehalose]
- airway resistance ([1]; FIG. 2A): significantly reduced the airway resistance
- compliance ([1]; FIG. 2B): significantly increased the compliance
- damage to alveolar epithelial cells (inflammatory cell infiltration, goblet cell hyperplasia) [2]: suppress damage to the alveolar epithelial cells
- IL-13 level in bronchoalveolar lavage fluid [3]: significantly suppress the expression of cytokines
- lipid peroxides (LPO) level [4]: protecting cells from oxygen free radicals and hemolysate
- level of released arachidonic acid [5]: protecting cells from oxygen free radicals and hemolysate
- dose dependence of suppression of the TNT-α production ([6]; cell lysate model): depends on the dosage of trehalose
- TNF-α level induced by cell lysate ([6]; lysate homogenized in 10% aqueous trehalose vs saline, 8 hours, FIG. 7A): significantly reduced
- TGF-β1 level induced by cell lysate [7]: significantly reduced
- PLA2 activation caused by drying stimulus (released arachidonic acid) [8]: suppresses PLA2 activation caused by drying stimulus
